In publication PMC4805082, “Seizure control by decanoic acid through direct AMPA receptor inhibition” (Brain, 2015):

Columns and labels:
[1] = system: epileptiform activity (burst discharges) in hippocampal slices induced by low-Mg2+; experiment: In vitro seizure model, low-Mg2+ induced epileptiform activity in hippocampal slices; assay type: cell-based, rat; settings: 10 mM; low magnesium
Experimental: (§1) Male Sprague-Dawley rats (postnatal Days 19–30) were sacrificed using an overdose of isoflurane or pentobarbitone (500 mg/kg). After decapitation the brain was rapidly removed, the hippocampus or entorhinal cortex-hippocampus slices was dissected from the brain and […] thick transverse slices were prepared on a VT1200S vibratome (Leica) or Vibratome (Vibratome® 1500 sectioning system, Intracell). The slicing was performed in ice-cold sucrose-based solution containing (in mM): 75 sucrose, 87 NaCl, 22 glucose, 2.5 KCl, 7 MgCl2, 1.25 NaH2PO4, 0.5 CaCl2 and 25 NaHCO3, pH 7.4, 315–330 mOsm equilibrated with 95% O2 plus 5% CO2. The slices were then stored in a continuously oxygenated humidified interface holding chamber containing oxygenated artificial CSF (in mM): 120 NaCl, 22 glucose, 2.5 KCl, 1.3 MgSO4, 1 NaH2PO4, 25 NaHCO3 and 2.5 CaCl2, pH 7.4 296 mOsm, where they recovered for at least 1 h before use.
During the experiment, slices were transferred from the interface chamber into a submerged recording chamber, designed to optimize wash-in and wash-out of drugs, and continuously perfused using gravity feed at 3–6 ml/min with prewarmed (36°C) oxygenated artificial CSF (95% O2, 5% CO2). Field potentials were recorded with a glass microelectrode (1–2 MΩ) filled with artificial CSF solution placed in stratum radiatum of CA1 and were filtered at 1 kHz and digitized at 2 kHz (using an npi EXT-02F extracellular amplifier recorded with WinEDR software). In the pentylenetetrazol model, the epileptiform (paroxysmal) activity was induced by application of pentylenetetrazol (2 mM) to the perfusate and [K^+] was increased (to 6 mM); in low-Mg^2+ model, the epileptiform activity was elicited by using Mg^2+-free artificial CSF. Once the frequency of the paroxysmal activity was stable for at least 10 min, compounds were applied to the perfusate for the following 40 min, and washed out for a remaining 20 min. The anticonvulsant effects were evaluated by measuring the change in the frequency of the discharges at minute intervals. […]

[2] = system: epileptiform activity (burst discharges) in hippocampal slices induced by pentylenetetrazol; experiment: In vitro seizure model, pentylenetetrazol-induced epileptiform activity in hippocampal slices; assay type: cell-based, rat; settings: pentylenetetrazol 2 mM, K+ 6 mM
Experimental: as §1
During the experiment, slices were transferred from the interface chamber into a submerged recording chamber, designed to optimize wash-in and wash-out of drugs, and continuously perfused using gravity feed at 3–6 ml/min with prewarmed (36°C) oxygenated artificial CSF (95% O2, 5% CO2). Field potentials were recorded with a glass microelectrode (1–2 MΩ) filled with artificial CSF solution placed in stratum radiatum of CA1 and were filtered at 1 kHz and digitized at 2 kHz (using an npi EXT-02F extracellular amplifier recorded with WinEDR software). In the pentylenetetrazol model, the epileptiform (paroxysmal) activity was induced by application of pentylenetetrazol (2 mM) to the perfusate and [K^+] was increased (to 6 mM); in low-Mg^2+ model, the epileptiform activity was elicited by using Mg^2+-free artificial CSF. Once the frequency of the paroxysmal activity was stable for at least 10 min, compounds were applied to the perfusate for the following 40 min, and washed out for a remaining 20 min. The anticonvulsant effects were evaluated by measuring the change in the frequency of the discharges at minute intervals. The discharge frequency was then averaged every 5 min during the experiment and normalized to baseline. The compounds applied in this study included: 1% dimethyl sulphoxide (DMSO), acetone (10 mM, Sigma), (±)-sodium 3-hydroxybutyrate (BHB) (10 mM, Sigma), and decanoic acid (1 mM, Alfa Aesar Pty). Acetone and decanoic acids were prepared as 1000× stocks in DMSO, and BHB was prepared as 100× stock. Stocks were dissolved in artificial CSF to achieve their final concentrations during experiments, and where applicable, experiments included constant levels of DMSO.

AMPA receptor GluA2/3 = biological target: T1, AMPA receptor GluA2/3 (Homo sapiens, UniProt P42262+P42263); experiment: Two-electrode voltage clamp, AMPA receptor GluA2/3 expressed in Xenopus oocytes; assay type: cell-based; settings: for AMPA receptor currents: compound 1 mM, currents elicited by 100 µM L-glutamate, −50 mV
T1 construct: expressed in transfected cells; host or cells: Xenopus laevis oocytes injected with cRNA (1:1 mix)
Experimental: The AMPA receptor (flip isoform) cDNAs inserted in a SP6 polymerase expression vector (pSP6T) were a generous gift from Prof. Ralf Schoepfer (NPP, UCL). […] AMPA receptor cRNAs were mixed in a nominal 1:1 ratio and ∼5 ng was injected per oocyte.
(§2) Xenopus laevis oocytes were purchased from the European Xenopus Resource Centre, University of Portsmouth. Stage V to VI oocytes were mechanically dissected and then subjected to gentle shaking for ∼30–50 min at room temperature with modified Barth’s solution (in mM): 88 NaCl, 1 KCl, 2.4 NaHCO3, 0.82 MgCl2, 0.77 CaCl2, 15 Tris-Cl, adjusted to pH 7.4 with NaOH (Sigma-Aldrich), supplemented with 50 IU/ml penicillin and 50 µg/ml streptomycin (Invitrogen) and 50 µg/ml tetracycline (Sigma-Aldrich) and 1% collagenase (type 1A). Healthy oocytes were manually defolliculated and the injections of cRNA for homomeric subunits alone (GluA1), or heteromeric mixtures of two subunits together (GluA1/GluA2 or GluA2/GluA3) were made using an automated Drummond Nanoinject II injector. The oocytes were then incubated at 17°C in modified Barth’s solution for at least 48 h before use in electrophysiological recordings.
Experiments were performed at room temperature (∼21–23°C). […] Current and voltage electrodes were filled with 300 mM KCl and made from thin-walled borosilicate glass (GC150TF-7.5, Harvard Apparatus) using a PC-10 electrode puller (Narashige Instruments) and had resistances of 0.5–2 MΩ. […] Compounds were dissolved in distilled water or DMSO and dissolved in bathing solution to achieve their final concentrations during experiments, and were applied under gravity flow during the experiment by using a multi-valve perfusion system (VC3-8C, ALA Scientific Instruments). The bath solutions were perfused at a rate of 10 ml/min. […] Data acquisition was performed using the Windows PC-based program, WinEDR v3.0.6 (John Dempster, University of Strathclyde, UK).
Statistical analysis was performed using ANOVA with Tukey post hoc test, paired t-test or unpaired t-test.

AMPA receptor = system: AMPA receptor; parameters: method as in Arai, 2001; settings: 50 µM; ref Arai, 2001; cited from earlier work
AMPA receptor GluA1 = biological target: T2, AMPA receptor GluA1 (Homo sapiens, UniProt P42261); experiment: Two-electrode voltage clamp, homomeric GluA1 AMPA receptor expressed in Xenopus oocytes; assay type: cell-based; settings: glutamate 100 µM
T2 construct: expressed in transfected cells; host or cells: Xenopus laevis oocytes injected with cRNA
Experimental: The AMPA receptor (flip isoform) cDNAs inserted in a SP6 polymerase expression vector (pSP6T) were a generous gift from Prof. Ralf Schoepfer (NPP, UCL). RNA was transcribed in vitro from MluI linearized transcripts using the SP6 Promega RiboMAX® RNA synthesis kit according to manufacturer’s protocols except for the addition of 0.75 mM capping nucleotide m^7G(5’)ppp(5’)G (Promega) and 1.6 mM GTP. cRNA concentrations and integrity were estimated by the intensity of fluorescence bands in RNA denaturating gels. AMPA receptor cRNAs were mixed in a nominal 1:1 ratio and ∼5 ng was injected per oocyte.
as §2
Experiments were performed at room temperature (∼21–23°C). An oocyte was placed in a recording chamber (0.3–0.5 ml volume) and perfused with ND96 solution (96 mM NaCl, 2 mM KCl, 1.8 mM CaCI2, 1 mM MgCl2, 5 mM HEPES, with pH adjusted to 7.5). Current and voltage electrodes were filled with 300 mM KCl and made from thin-walled borosilicate glass (GC150TF-7.5, Harvard Apparatus) using a PC-10 electrode puller (Narashige Instruments) and had resistances of 0.5–2 MΩ. Oocytes were voltage-clamped to a holding potential of −50 mV or −60 mV using a Turbo TEC-03 amplifier (npi electronics). […]

[3] = humans; ref Rogawski and Hanada, 2013; cited from earlier work
field EPSP = system: field EPSP; parameters: method as in Ceolin et al., 2012; settings: at 30–50 nM; ref Ceolin et al., 2012; cited from earlier work
[4] = system: epileptiform activity (burst discharges) in hippocampal slices induced by pentylenetetrazol; parameters: method as in Chang et al., 2012, 2013; settings: 1 mM; ref Chang et al., 2012, 2013; cited from earlier work
[5] = system: epileptiform activity (burst discharges) in hippocampal slices induced by low-Mg2+; parameters: method as in Chang et al., 2012, 2013; settings: 1 mM; ref Chang et al., 2012, 2013; cited from earlier work

T1 sequence (P42262 22-883 isoform P42262-2 limits assumed): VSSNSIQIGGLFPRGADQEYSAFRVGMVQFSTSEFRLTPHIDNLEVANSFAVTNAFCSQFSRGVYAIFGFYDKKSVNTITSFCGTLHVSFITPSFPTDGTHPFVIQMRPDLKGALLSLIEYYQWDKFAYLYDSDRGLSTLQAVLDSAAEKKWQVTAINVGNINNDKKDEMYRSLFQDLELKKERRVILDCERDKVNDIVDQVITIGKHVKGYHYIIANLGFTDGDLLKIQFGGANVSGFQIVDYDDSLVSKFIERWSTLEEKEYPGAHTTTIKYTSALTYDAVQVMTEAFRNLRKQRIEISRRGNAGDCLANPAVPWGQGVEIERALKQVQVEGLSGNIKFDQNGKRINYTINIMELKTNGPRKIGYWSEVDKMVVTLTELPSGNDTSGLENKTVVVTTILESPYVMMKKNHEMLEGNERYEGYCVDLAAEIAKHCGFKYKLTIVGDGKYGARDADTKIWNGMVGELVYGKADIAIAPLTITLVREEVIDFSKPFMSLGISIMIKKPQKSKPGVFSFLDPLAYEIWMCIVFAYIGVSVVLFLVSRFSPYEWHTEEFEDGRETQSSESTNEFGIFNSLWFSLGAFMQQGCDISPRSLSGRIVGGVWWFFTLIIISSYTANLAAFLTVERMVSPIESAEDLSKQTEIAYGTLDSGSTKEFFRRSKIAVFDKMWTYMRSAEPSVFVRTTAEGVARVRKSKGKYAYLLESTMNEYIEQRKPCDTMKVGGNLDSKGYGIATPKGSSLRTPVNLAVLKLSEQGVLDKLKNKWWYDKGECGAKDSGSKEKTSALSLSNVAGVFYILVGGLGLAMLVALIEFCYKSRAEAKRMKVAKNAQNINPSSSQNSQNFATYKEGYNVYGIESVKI
T1 sequence (P42263 29-894 isoform P42263-2 limits assumed): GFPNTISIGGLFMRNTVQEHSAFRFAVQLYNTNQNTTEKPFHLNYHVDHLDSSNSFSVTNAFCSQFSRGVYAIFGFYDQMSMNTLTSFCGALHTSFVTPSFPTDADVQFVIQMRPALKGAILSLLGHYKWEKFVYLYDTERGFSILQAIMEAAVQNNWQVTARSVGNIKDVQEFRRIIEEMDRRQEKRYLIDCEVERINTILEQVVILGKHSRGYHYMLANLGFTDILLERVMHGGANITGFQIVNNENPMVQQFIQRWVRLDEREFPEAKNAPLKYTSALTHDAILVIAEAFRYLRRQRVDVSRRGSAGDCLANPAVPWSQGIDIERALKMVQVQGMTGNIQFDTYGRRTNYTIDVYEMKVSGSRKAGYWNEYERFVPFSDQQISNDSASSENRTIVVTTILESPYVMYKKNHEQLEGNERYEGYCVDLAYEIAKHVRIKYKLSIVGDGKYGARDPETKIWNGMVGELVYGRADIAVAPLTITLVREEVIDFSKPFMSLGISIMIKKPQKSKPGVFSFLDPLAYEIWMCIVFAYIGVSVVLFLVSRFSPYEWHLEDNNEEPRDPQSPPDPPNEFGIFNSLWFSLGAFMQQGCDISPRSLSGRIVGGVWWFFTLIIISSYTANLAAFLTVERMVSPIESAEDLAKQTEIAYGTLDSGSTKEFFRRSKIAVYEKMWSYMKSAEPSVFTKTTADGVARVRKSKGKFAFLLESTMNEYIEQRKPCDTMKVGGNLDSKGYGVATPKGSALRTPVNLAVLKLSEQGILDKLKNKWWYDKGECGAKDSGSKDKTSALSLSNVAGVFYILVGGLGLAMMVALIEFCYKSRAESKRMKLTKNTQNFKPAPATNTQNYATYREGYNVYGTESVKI
T2 sequence (P42261 19-906 isoform P42261-2 limits assumed): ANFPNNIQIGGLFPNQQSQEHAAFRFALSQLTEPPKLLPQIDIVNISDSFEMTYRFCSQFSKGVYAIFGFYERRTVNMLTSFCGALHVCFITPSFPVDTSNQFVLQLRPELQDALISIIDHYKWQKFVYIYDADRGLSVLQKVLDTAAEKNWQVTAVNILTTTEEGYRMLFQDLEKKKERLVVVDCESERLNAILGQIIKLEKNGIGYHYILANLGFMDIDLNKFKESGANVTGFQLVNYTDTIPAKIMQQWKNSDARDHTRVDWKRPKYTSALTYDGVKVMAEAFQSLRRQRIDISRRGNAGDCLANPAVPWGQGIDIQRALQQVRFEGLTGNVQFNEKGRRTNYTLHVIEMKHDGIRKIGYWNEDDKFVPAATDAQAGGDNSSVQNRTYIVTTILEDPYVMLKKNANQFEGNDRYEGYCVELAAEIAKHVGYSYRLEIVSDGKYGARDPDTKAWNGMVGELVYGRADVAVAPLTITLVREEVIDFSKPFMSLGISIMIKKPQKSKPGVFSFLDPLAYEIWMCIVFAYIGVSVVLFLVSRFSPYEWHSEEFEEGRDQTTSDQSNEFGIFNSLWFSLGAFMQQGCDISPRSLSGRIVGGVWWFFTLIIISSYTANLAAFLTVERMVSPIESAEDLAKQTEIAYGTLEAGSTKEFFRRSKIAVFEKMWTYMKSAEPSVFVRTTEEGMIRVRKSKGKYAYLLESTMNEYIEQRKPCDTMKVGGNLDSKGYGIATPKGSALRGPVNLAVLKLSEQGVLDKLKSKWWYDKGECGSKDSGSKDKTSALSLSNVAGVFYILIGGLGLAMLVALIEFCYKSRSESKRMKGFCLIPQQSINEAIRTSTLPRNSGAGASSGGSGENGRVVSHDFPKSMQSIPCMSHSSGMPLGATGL

In the case of `CC(O)CC(=O)O` (racemic) [β-hydroxybutyrate, (±)-sodium 3-hydroxybutyrate], the “effect on epileptiform activity” value [1] is reported as “did not have any effect” and the “effect on epileptiform activity” value ([2]; 10 mM) is reported as “did not have any effect”.

For `CCCCC(C)CCC(=O)O` (stereo not drawn) [4-methyloctanoic acid], the IC50 (AMPA receptor GluA2/3; glutamate 100 µM, read-out: IC50, inhibition of glutamate-induced AMPA receptor current) was 840 ± 40 µM.

In the case of `CC1=NN=C(c2ccc(N)cc2)c2cc3c(cc2C1)OCO3` [GYKI 52466, reference compound], the “effect on epileptiform activity” value ([2]; 50 µM) is given as “completely blocked” and the “decrease in AMPA receptor responses” value (AMPA receptor) is given as 60–70%.

For `CC(C)=O` [acetone], the “effect on epileptiform activity” value [1] was “did not have any effect” and the “effect on epileptiform activity” value ([2]; 10 mM) was “did not have any effect”.

In the case of `CCCCCCCC(=O)O` [octanoic acid, reference compound], the AMPA receptor currents (AMPA receptor GluA2/3) is reported as “no effect” and the “effect on homomeric GluA1 currents” value (AMPA receptor GluA1) is reported as “no effect”.

In the case of `N#Cc1ccccc1-c1cc(-c2ccccn2)cn(-c2ccccc2)c1=O` [perampanel], the “free concentrations observed to be efficacious” value [3] is given as 30 to 50 nM and the “reduction in field EPSP slope” value (field EPSP) is given as about 20%.

In the case of `CCCC(CCC)C(=O)O` [valproic acid], the “effect on seizure activity” value [4] is listed as “only modifies seizure activity”, the “effect on seizure activity” value [5] is listed as “only modifies seizure activity” and the AMPA receptor currents (AMPA receptor GluA2/3) is listed as “no action”. For the same compound, the “effect on homomeric GluA1 currents” value (AMPA receptor GluA1) was “no effect”.
